Series [1] is described as follows: Rat behavior observations for signs of motor impairment by trained observer. Format: in vivo. The following applies: 6 mg/kg subcutaneous, rats, 30 minute observation period. As to the method: Rat behavior pharmacology observations for signs of motor impairment by trained observer. Rats were monitored after dosing for any signs of impairment by Compound 1 administered as 6 mg/kg dose by subcutaneous route.

The nature of series [2]: LCMS bioanalysis of compound levels in rat samples (plasma, CSF, brain) after administration. Format: in vivo. The following applies: lower limit of quantification 1 ng/ml. The source says: Measurement of Compound 1 or Compound 2 from rat samples (plasma, cerebral spinal fluid “CSF” or brain homogenate) was done by high resolution using a sensitive LCMS method.
Extracts of biological samples (either organic solvent precipitated or organic solvent extracted i. plasma or ii. CSF or iii. homogenates of whole brains from Compound 1 or Compound 2 treated rats) were subjected to LCMS and were compared to freshly prepared standard curves on exactly the same LCMS instrument. The standard curves were prepared of Compound 1 or Compound 2 at known concentrations dispensed (spiked) into rat plasma (supplied by Bioivt formerly Bioreclamation, Cat. No. RAT00PLK2Y2N, Bioivt, Hicksville N.Y. USA) as Sprague Dawley male rat plasma prepared by collection of blood into potassium-EDTA “K2-EDTA” tubes, centrifuged and stored at −80 C until usage). […] The lower limit of quantification of Compound 1 or Compound 2 based on the conditions used was 1 ng/ml and the standard curve was linear to 5,000 ng/ml. […]
Acute administration of test compound 1 or test compound 2 by routes described (either PO, SC or IV) was done to rats and samples collected at the timepoints described for subsequent extraction, dissolution and quantitative LCMS bioanalysis. […]

Series [3] can be described thus: Hydrolysis by rat plasma in vitro at 37 degrees C. Format: in vitro ADME.

The values that follow come from patent publication US11685726B2, “Pharmaceutical compositions of 6-(2-(2H-tetrazol-5-yl)ethyl)-6-fluorodecahydroisoquinoline-3-carboxylic acid and ester derivatives thereof” (Sea Pharmaceuticals LLC, priority 2020, dated 2023).

The structures appear in SMILES notation.

With `O=C(O)[C@@H]1C[C@H]2C[C@@](F)(CCc3nnn[nH]3)CC[C@H]2CN1` [Compound 1, (3S,4aS,6S,8aR)-6-fluoro-6-[2-(1H-1,2,3,4-tetrazol-5-yl)ethyl]-decahydroisoquinoline-3-carboxylic acid], the “signs of motor impairment / tolerability or neurological changes” value in series [1] is “No tolerability or neurological changes were observed”.
For `O=C(O)[C@@H]1C[C@H]2CC(F)(CCc3nnn[nH]3)CC[C@H]2CN1` (stereo in doubt) [Compound 2, (3S,4aS,6R,8aR)-6-fluoro-6-[2-(1H-1,2,3,4-tetrazol-5-yl)ethyl]-decahydroisoquinoline-3-carboxylic acid], in series [2], the “compound levels in vivo by LCMS” value is recorded as “below limit of detection”. The “hydrolysis to Compound 1 by rat plasma in vitro” value in series [3] (incubated at 37 degrees C) is given as “within minutes”. The “hydrolysis by rat plasma after esterase inhibitor pretreatment” value in series [3] (plasma pretreated 37 degrees C 5 min with 10 micromolar methyl arachidonoyl fluoro phosphonate) is recorded as “blocked”.
